Laboratory results from article PMC12446476 (Nature Communications, 2025).
≈ marks a conversion by molar mass, not a printed value. Read-outs that look alike come from different tables or passages of the source.

Key:
[1] = test system: intracellular N. gonorrhoeae; test: Intracellular killing in HeLa229 cells; type: cell-based, Neisseria gonorrhoeae; details: within 24 h
Procedure: Intracellular killing was assessed within HeLa229 cells (European Collection of Authenticated Cell Cultures, London, UK) that were seeded at ~3 × 10^5 cells/mL and grown to 70–80% confluence in RPMI-glutamine media supplemented with 10% (v/v) heat-inactivated fetal bovine serum (FBS, Gibco, MA, USA). Cells were incubated at 37 °C with 5% CO2 for 24 h, then washed with serum-free RPMI-1640 prior to infection. N. gonorrhoeae was scraped from agar plates and resuspended in Dulbecco’s Phosphate Buffered Saline (DPBS, Sigma-Aldrich), pelleted, then resuspended in RPMI with 2% FBS. Bacterial suspensions were used to infect HeLa229 cells at a multiplicity of infection of 100:1. Plates were briefly centrifuged (500 × g for 5 min), then incubated for one hour. This incubation and all subsequent incubations were performed at 37 °C with 5% CO2. Non-adherent cells were removed by washing with serum-free RPMI, and the remaining extracellular bacteria were killed via resuspension in RPMI-glutamine supplemented with 2% FBS and 200 μg/mL gentamycin and incubation for one hour. […] Azithromycin-treated samples were included for control/comparison. […] Samples were diluted and plated onto chocolate II agar for viable bacteria quantification. Intracellular killing assays were performed at Microbiologics, Kalamazoo, MI, USA, using a method adapted from previous studies[68],[69].

[2] = test system: N. gonorrhoeae; test: MIC determination, agar dilution (CLSI); type: cell-based, Neisseria gonorrhoeae; details: for MIC: Neisseria gonorrhoeae
Text: The 2024 WHO N. gonorrhoeae reference strains were used for quality control. Only whole MIC doubling dilutions are reported. Clinical breakpoints or the epidemiological cutoff (ECOFF, to indicate azithromycin resistance) from EUCAST (v14.0, https://www.eucast.org/clinical_breakpoints) were used to classify isolates as antimicrobial susceptible or resistant. […] Two times the standard inoculum defined by CLSI was used to establish consistent growth in untreated control samples for some strains. In vitro time-kill assays were performed according to CLSI guidelines[65] using Columbia Broth (BD Difco) supplemented with 1% IsoVitaleX Enrichment (BD). Viable bacterial counts were generated by plating 10-fold serially diluted samples on GC agar plates containing 1% IsoVitaleX Enrichment (BD).

SMILES: CC[C@H]1OC(=O)[C@H](C)[C@@H](O[C@H]2C[C@@](C)(OC)[C@@H](O)[C@H](C)O2)[C@H](C)[C@@H](O[C@@H]2O[C@H](C)C[C@H](N(C)C)[C@H]2O)[C@](C)(O)C[C@@H](C)CN(C)[C@H](C)[C@@H](O)[C@]1(C)O [Azithromycin]
- reduction of intracellular bacteria ([1]; ATCC 49226 in HeLa229 cells): ≥ 3.3 log10CFU/mL
- reduction of intracellular bacteria ([1]; WHO X in HeLa229 cells): ≥ 2.8 log10CFU/mL

SMILES: CO/N=C(\C(=O)N[C@@H]1C(=O)N2C(C(=O)O)=C(CSc3nc(=O)c(=O)[nH]n3C)CS[C@H]12)c1csc(N)n1 [Ceftriaxone, reference compound]
- susceptibility of all isolates ([2]; 100 contemporary clinical N. gonorrhoeae isolates, EUCAST): susceptible
- MIC ([2]; ATCC700825, ATCC 700825, mode of multiple measures, read-out: MIC): 0.002 mg/L (≈ 0.00361 µM)
- MIC ([2]; WHO H, agar dilution, read-out: MIC): 0.25 mg/L (≈ 0.451 µM)
- MIC ([2]; WHO K, agar dilution, read-out: MIC): 0.06 mg/L (≈ 0.108 µM)
- MIC ([2]; WHO L, agar dilution, read-out: MIC): 0.25 mg/L (≈ 0.451 µM)
- MIC ([2]; WHO Q, agar dilution, read-out: MIC): 0.5 mg/L (≈ 0.902 µM)
- MIC ([2]; WHO R, agar dilution, read-out: MIC): 0.5 mg/L (≈ 0.902 µM)
- MIC ([2]; WHO S2, agar dilution, read-out: MIC): < 0.008 mg/L
- MIC ([2]; WHO V, agar dilution, read-out: MIC): 0.06 mg/L (≈ 0.108 µM)
- MIC ([2]; WHO X-07 (CIP-R, CRO-R), mode of multiple measures, read-out: MIC): 2 mg/L (≈ 3.61 µM)
- MIC ([2]; WHO Y, agar dilution): 1 mg/L (≈ 1.8 µM)
- AMR phenotype (susceptibility category, EUCAST) ([2]; WHO F): S
- AMR phenotype (susceptibility category, EUCAST) ([2]; WHO H): R
- AMR phenotype (susceptibility category, EUCAST) ([2]; WHO K): S
- AMR phenotype (susceptibility category, EUCAST) ([2]; WHO L): R
- AMR phenotype (susceptibility category, EUCAST) ([2]; WHO M): S
- AMR phenotype (susceptibility category, EUCAST) ([2]; WHO O): S
- AMR phenotype (susceptibility category, EUCAST) ([2]; WHO P): S
- AMR phenotype (susceptibility category, EUCAST) ([2]; WHO Q): R
- AMR phenotype (susceptibility category, EUCAST) ([2]; WHO R): R
- AMR phenotype (susceptibility category, EUCAST) ([2]; WHO S2): S
- AMR phenotype (susceptibility category, EUCAST) ([2]; WHO U): S
- AMR phenotype (susceptibility category, EUCAST) ([2]; WHO V): S
- AMR phenotype (susceptibility category, EUCAST) ([2]; WHO X): R
- AMR phenotype (susceptibility category, EUCAST) ([2]; WHO Y): R
- AMR phenotype (susceptibility category, EUCAST) ([2]; WHO Z): R
